This note sets out measurements from PubChem BioAssay (NCI).

Some test systems named below: BT-549 breast; CAKI-1 renal; HCC-2998 colon; HCT-116 colon; HL-60(TB) leukemia; IGROV1 ovarian; MDA-MB-231 breast; MDA-MB-435; OVCAR-8 ovarian; SF-539 CNS; SK-OV-3 ovarian; TK-10 renal; UACC-62 melanoma; M14 melanoma.
Common to all, as to test: inhibition of tumour cell growth, NCI panel, 48 h

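Growth conditions: 96-well plates. Treatment: test compound, 48 hours, 5 concentrations. Analysis: linear interpolation between bracketing concentrations; unreached endpoints set to highest concentration. TGI: total growth inhibition.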 A value given as a limit tells only on which side of the number the result lay.

Turning to `CC12Nc3c(Cl)cc(Cl)cc3N1C(=O)c1ccccc12` (stereo not given), the TGI with BT-549 breast, with CAKI-1 renal, in the assay with HCC-2998 colon, with HCT-116 colon, in the assay with HL-60(TB) leukemia and in the assay with IGROV1 ovarian was over 100 µM each time. Moreover, the TGI with MDA-MB-231 breast, in the assay on MDA-MB-435, with OVCAR-8 ovarian, in the assay on SF-539 CNS, in the assay with SK-OV-3 ovarian and in the assay on TK-10 renal was over 100 µM throughout. This compound had a TGI in the assay on UACC-62 melanoma of over 100 µM.

On to `CC[C@]12C=CCN3CC[C@@]4(c5cc(Br)c(OC)c([N+](=O)[O-])c5N(C)[C@H]4[C@@](O)(C(=O)OC)[C@@H]1OC(C)=O)[C@@H]32`, for which the TGI was over 100 µM in the assay with BT-549 breast; over 100 µM in the assay with CAKI-1 renal; over 100 µM in the assay on HCT-116 colon; over 100 µM with HL-60(TB) leukemia; 61.4 µM in the assay with IGROV1 ovarian; over 100 µM in the assay with M14 melanoma. The TGI in the assay on MDA-MB-231 breast, with MDA-MB-435, in the assay on OVCAR-8 ovarian, with SF-539 CNS, in the assay on SK-OV-3 ovarian and in the assay on TK-10 renal was over 100 µM throughout. Besides, the TGI in the assay on UACC-62 melanoma was over 100 µM.

Turning to `CC(=O)OC1=NN=C2COC(c3ccccc3OC(C)=O)=NN2C1`, the TGI in the assay on BT-549 breast, in the assay on CAKI-1 renal, with HCC-2998 colon, in the assay on HCT-116 colon, with HL-60(TB) leukemia and with IGROV1 ovarian was over 50 µM in each case. Besides, the TGI in the assay on M14 melanoma, in the assay with MDA-MB-231 breast, in the assay on MDA-MB-435, in the assay with SF-539 CNS, in the assay on SK-OV-3 ovarian and in the assay with TK-10 renal was over 50 µM throughout. This compound displayed a TGI in the assay on UACC-62 melanoma of over 50 µM.

`Cc1c(N=Nc2ccccc2)c(-c2ccccc2)n(C2OC(CO)C(O)C(O)C2O)c(=S)c1C#N` (stereo not given): the TGI is over 100 µM in the assay on BT-549 breast; 30.9 µM with HCC-2998 colon; over 100 µM in the assay with HL-60(TB) leukemia; 22.5 µM in the assay on IGROV1 ovarian; 19.3 µM with M14 melanoma; 44.4 µM in the assay with MDA-MB-231 breast. Further, the TGI was 19.5 µM in the assay on MDA-MB-435; over 100 µM with OVCAR-8 ovarian; 20.6 µM with SF-539 CNS; 23 µM in the assay on SK-OV-3 ovarian; 26.9 µM in the assay with TK-10 renal; 13 µM in the assay with UACC-62 melanoma.

In the case of `COc1ccc(CC2Cc3ccccc3CCN2)cc1OC` (stereo not given), the TGI in the assay with BT-549 breast, in the assay on CAKI-1 renal, in the assay on HCC-2998 colon, in the assay with HCT-116 colon, with HL-60(TB) leukemia and in the assay with IGROV1 ovarian was over 50 µM in each case. Moreover, the TGI with M14 melanoma, in the assay on MDA-MB-231 breast, with MDA-MB-435, with OVCAR-8 ovarian, in the assay on SF-539 CNS and in the assay on SK-OV-3 ovarian was over 50 µM in each case. The compound also came in with a TGI in the assay on UACC-62 melanoma of over 50 µM.

Take `C[C@]12CC[C@H]3[C@@H](CCC4=CC(=O)CC[C@@H]43)[C@@H]1CC[C@]2(O)C(N)=O`: the TGI with BT-549 breast, in the assay with HCC-2998 colon, in the assay on HCT-116 colon, in the assay on HL-60(TB) leukemia, with IGROV1 ovarian and in the assay with M14 melanoma was over 100 µM throughout. The TGI in the assay with MDA-MB-231 breast, in the assay on MDA-MB-435, with OVCAR-8 ovarian, with SF-539 CNS, with SK-OV-3 ovarian and in the assay with TK-10 renal was over 100 µM each time. The compound also displayed a TGI with UACC-62 melanoma of over 100 µM.

In the case of `CC(C)(C)c1cc(S(=O)(=O)O)c2oc(-c3ccccc3)cc(=O)c2c1`, the TGI with BT-549 breast, with CAKI-1 renal, in the assay with HCC-2998 colon, in the assay on HCT-116 colon, with HL-60(TB) leukemia and in the assay on IGROV1 ovarian was over 100 µM each time. The TGI with MDA-MB-231 breast, with MDA-MB-435, in the assay with OVCAR-8 ovarian, with SF-539 CNS and in the assay with TK-10 renal was over 100 µM throughout.

As to `COC(=O)C1=CC2C(=O)c3ccccc3C1(c1ccccc1)N2C1CCCCC1` (stereo not given), the TGI is 79.7 µM with BT-549 breast; 46.1 µM with CAKI-1 renal; 30.1 µM with HCC-2998 colon; over 100 µM with HCT-116 colon; over 100 µM in the assay with HL-60(TB) leukemia; over 100 µM in the assay on IGROV1 ovarian. Moreover, the TGI in the assay with M14 melanoma is over 100 µM; with MDA-MB-231 breast, 42.8 µM; with MDA-MB-435 it was 43.4 µM; in the assay with OVCAR-8 ovarian, over 100 µM; with SF-539 CNS, 41.5 µM; with SK-OV-3 ovarian, over 100 µM. The compound further gave a TGI with TK-10 renal of over 100 µM.

As to `Cc1nc2ccccc2c(=O)n1NC(=O)c1ccccn1`, the TGI with BT-549 breast, in the assay with HCC-2998 colon, in the assay on HCT-116 colon, in the assay with HL-60(TB) leukemia, in the assay with IGROV1 ovarian and with M14 melanoma was over 100 µM throughout. The TGI in the assay on MDA-MB-231 breast, with MDA-MB-435, in the assay on OVCAR-8 ovarian, in the assay on SF-539 CNS, with SK-OV-3 ovarian and with TK-10 renal was over 100 µM each time. In the assay with UACC-62 melanoma, this compound yielded a TGI of over 100 µM.

In the case of `CC(=O)NC1C(OCc2ccccc2)OC(CO)C(O)C1OC(C)C(=O)NC(C(=O)NC(CCC(=O)NCCCC(=O)Nc1ccc2c(c1)CN1C(=O)c3ccccc3C1=N2)C(N)=O)C(C)C` (stereo not given), the TGI in the assay with BT-549 breast, in the assay with CAKI-1 renal, in the assay on HCC-2998 colon, in the assay on HCT-116 colon, in the assay with HL-60(TB) leukemia and in the assay with IGROV1 ovarian was over 100 µM each time. The TGI with M14 melanoma, with MDA-MB-231 breast, with MDA-MB-435, in the assay on SF-539 CNS, in the assay with SK-OV-3 ovarian and in the assay with TK-10 renal was over 100 µM in each case. In the assay with UACC-62 melanoma, this compound gave a TGI of over 100 µM.

Turning to `CC1=NN(c2ccccc2)C2(C1)C(Cl)C(=O)N2c1nc2ccccc2s1` (stereo not given), the TGI in the assay with BT-549 breast is over 100 µM; in the assay with CAKI-1 renal, over 100 µM; in the assay on HCC-2998 colon, over 100 µM; with HCT-116 colon it was 51.5 µM; in the assay with HL-60(TB) leukemia it was 55.5 µM; with IGROV1 ovarian, over 100 µM. For the same compound, the TGI in the assay on M14 melanoma was over 100 µM; in the assay with MDA-MB-231 breast it was 89.2 µM; with MDA-MB-435, over 100 µM; in the assay on OVCAR-8 ovarian, over 100 µM; in the assay with SK-OV-3 ovarian, over 100 µM; in the assay with TK-10 renal, over 100 µM. Also, the TGI in the assay with UACC-62 melanoma was over 100 µM.
